From ChEMBL document CHEMBL1201862, “PubChem BioAssay data set” (2004)
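Five concentrations, 48 hours, 96-well plates. GI50 is the concentration that inhibits growth by half.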 Active and inactive are the calls of the source. Rule as the data show it: active = GI50 up to about 1.1 µM and inactive = higher.

Experiments:
Experiment in all cases: inhibition of tumour cell growth, NCI panel, 48 h
786-0 = system: 786-0
A498 = system: A498
A549 = system: A549
ACHN = system: ACHN
CAKI-1 = system: CAKI-1
CCRF-CEM = system: CCRF-CEM
COLO 205 = system: COLO 205
DLD-1 = system: DLD-1
DMS-114 = system: DMS-114
DMS-273 = system: DMS-273
EKVX = system: EKVX
HCC 2998 = system: HCC 2998
HCT-116 = system: HCT-116
HCT-15 = system: HCT-15
HL-60 = system: HL-60
HOP-18 = system: HOP-18
HOP-62 = system: HOP-62
HOP-92 = system: HOP-92
HT-29 = system: HT-29
IGROV-1 = system: IGROV-1
K562 = system: K562
KM-20L2 = system: KM-20L2
KM12 = system: KM12
LOX IMVI = system: LOX IMVI
LXFL 529 = system: LXFL 529
M14 = system: M14
M19-MEL = system: M19-MEL
MOLT-4 = system: MOLT-4
Malme-3M = system: Malme-3M
NCI-H226 = system: NCI-H226
NCI-H23 = system: NCI-H23
NCI-H460 = system: NCI-H460
NCI-H522 = system: NCI-H522
OVCAR-3 = system: OVCAR-3
OVCAR-4 = system: OVCAR-4
OVCAR-5 = system: OVCAR-5
OVCAR-8 = system: OVCAR-8
RPMI-8226 = system: RPMI-8226
RXF 393 = system: RXF 393
RXF 631 = system: RXF 631
SF-268 = system: SF-268
SF-295 = system: SF-295
SF-539 = system: SF-539
SK-MEL-28 = system: SK-MEL-28
SK-MEL-2 = system: SK-MEL-2
SK-MEL-5 = system: SK-MEL-5
SK-OV-3 = system: SK-OV-3
SN12C = system: SN12C
SNB-19 = system: SNB-19
SNB-75 = system: SNB-75
SNB-78 = system: SNB-78
SW-620 = system: SW-620
TK-10 = system: TK-10
U-251 = system: U-251
UACC-257 = system: UACC-257
UACC-62 = system: UACC-62
UO-31 = system: UO-31
XF498 = system: XF498

Structure (SMILES): CC(C)(C)OC(=O)NC(Cc1ccccc1)C(=S)N1CCCC1 (stereo not drawn)
- GI50 (786-0): > 100 µM (inactive)
- GI50 (A498): > 100 µM (inactive)
- GI50 (A549): > 100 µM (inactive)
- GI50 (ACHN): > 100 µM (inactive)
- GI50 (CAKI-1): > 50.9 µM (inactive)
- GI50 (CCRF-CEM): 69.2 µM (inactive)
- GI50 (COLO 205): > 100 µM (inactive)
- GI50 (DLD-1): 62.4 µM (inactive)
- GI50 (DMS-114): 65.5 µM (inactive)
- GI50 (DMS-273): > 79.3 µM (inactive)
- GI50 (EKVX): 52.6 µM (inactive)
- GI50 (HCC 2998): > 100 µM (inactive)
- GI50 (HCT-116): > 100 µM (inactive)
- GI50 (HCT-15): 75.5 µM
- GI50 (HL-60): 89.5 µM (inactive)
- GI50 (HOP-18): > 100 µM (inactive)
- GI50 (HOP-62): 25.8 µM (inactive)
- GI50 (HOP-92): 31.7 µM (inactive)
- GI50 (HT-29): 85.7 µM (inactive)
- GI50 (IGROV-1): > 100 µM (inactive)
- GI50 (K562): 78.3 µM (inactive)
- GI50 (KM-20L2): > 100 µM (inactive)
- GI50 (KM12): > 100 µM (inactive)
- GI50 (LOX IMVI): > 87.9 µM (inactive)
- GI50 (LXFL 529): > 90.4 µM (inactive)
- GI50 (M14): > 100 µM (inactive)
- GI50 (M19-MEL): > 100 µM (inactive)
- GI50 (MOLT-4): 42.6 µM (inactive)
- GI50 (Malme-3M): > 100 µM (inactive)
- GI50 (NCI-H226): > 100 µM (inactive)
- GI50 (NCI-H23): 48.8 µM (inactive)
- GI50 (NCI-H460): > 93.8 µM (inactive)
- GI50 (NCI-H522): 25 µM (inactive)
- GI50 (OVCAR-3): > 100 µM (inactive)
- GI50 (OVCAR-4): 86.3 µM (inactive)
- GI50 (OVCAR-5): > 100 µM (inactive)
- GI50 (OVCAR-8): > 100 µM (inactive)
- GI50 (RPMI-8226): 31.1 µM (inactive)
- GI50 (RXF 393): 58.9 µM (inactive)
- GI50 (RXF 631): > 100 µM (inactive)
- GI50 (SF-268): > 100 µM (inactive)
- GI50 (SF-295): 95.3 µM (inactive)
- GI50 (SF-539): > 100 µM (inactive)
- GI50 (SK-MEL-28): > 100 µM (inactive)
- GI50 (SK-MEL-2): > 100 µM (inactive)
- GI50 (SK-MEL-5): 57 µM (inactive)
- GI50 (SK-OV-3): > 100 µM (inactive)
- GI50 (SN12C): > 100 µM (inactive)
- GI50 (SNB-19): > 100 µM (inactive)
- GI50 (SNB-75): 55.5 µM (inactive)
- GI50 (SNB-78): > 100 µM (inactive)
- GI50 (SW-620): > 100 µM (inactive)
- GI50 (TK-10): > 100 µM (inactive)
- GI50 (U-251): > 100 µM (inactive)
- GI50 (UACC-257): 89.1 µM (inactive)
- GI50 (UACC-62): > 80.4 µM (inactive)
- GI50 (UO-31): 40.4 µM (inactive)
- GI50 (XF498): > 100 µM (inactive)
